Laboratory results from ChEMBL document CHEMBL4811234, “Dihydro-β-agarofuran-Type Sesquiterpenoids from the Seeds of Celastrus virens and Their Multidrug Resistance Reversal Activity against the KB/VCR Cell Line” (J Nat Prod, 2021).

What was measured:
[1] = Cytotoxicity against human KB/VCR cells assessed as inhibition of cell proliferation at 2 uM measured after 72 hrs by CCK8 assay relative to control; assay type: cell-based
[2] = Cytotoxicity against human KB/VCR cells assessed as inhibition of cell proliferation at 20 uM measured after 72 hrs by CCK8 assay relative to control; assay type: cell-based

SMILES	inhibition at 72 h, 2 µM [1]	inhibition at 72 h, 20 µM [2]
CC(=O)O[C@@H]1[C@@H]2[C@@H](OC(C)=O)[C@]3(OC2(C)C)[C@H](C)CC[C@H](OC(C)=O)[C@@]3(C)[C@@H]1OC(=O)c1ccccc1	1.6%	2.4%
CC(=O)O[C@@H]1[C@@H]2[C@@H](OC(C)=O)[C@]3(OC2(C)C)[C@H](C)C[C@H](OC(=O)/C=C/c2ccccc2)[C@H](OC(C)=O)[C@@]3(C)[C@@H]1OC(=O)c1ccccc1	0.7%	-12.8%
CC(=O)O[C@H]1[C@@H]2[C@@H](OC(C)=O)[C@]3(OC2(C)C)[C@H](C)C[C@@H](OC(C)=O)[C@H](OC(C)=O)[C@@]3(C)[C@H]1OC(=O)c1ccccc1	-1.2%	-2%
CC(=O)O[C@@H]1[C@@H]2[C@@H](OC(C)=O)[C@]3(OC2(C)C)[C@H](C)C[C@@H](OC(C)=O)[C@H](OC(C)=O)[C@@]3(C)[C@@H]1OC(=O)c1ccccc1	2.7%	-1.5%
COc1cc2c(cc1OC)CN(CCc1ccc(-n3nnc(-c4cc(OC)c(OC)cc4NC(=O)c4cc(=O)c5ccccc5o4)n3)cc1)CC2	23.1%	
CC(=O)O[C@H]1CC[C@@H](C)[C@]23OC(C)(C)[C@H](C[C@H](OC(=O)c4ccccc4)[C@]12C)[C@H]3OC(C)=O	-1.1%	0.7%
CC(=O)OC[C@]12[C@H](OC(C)=O)C(=O)[C@@H]3[C@@H](OC(C)=O)[C@]1(OC3(C)C)[C@H](C)[C@@H](O)[C@H](OC(C)=O)[C@@H]2OC(C)=O	-5.3%	9.2%
CC(=O)OC[C@]12[C@H](OC(C)=O)C(=O)[C@@H]3[C@@H](OC(C)=O)[C@]1(OC3(C)C)[C@H](C)C[C@H](O)[C@@H]2OC(C)=O	-2%	2.6%
CC(=O)O[C@H]1[C@@H]2[C@@H](OC(=O)/C=C/c3ccccc3)[C@]3(OC2(C)C)[C@H](C)C[C@H](O)[C@H](OC(C)=O)[C@@]3(C)[C@H]1OC(=O)c1ccccc1	-20.3%	76.9%
CC(=O)OC[C@]12[C@H](OC(C)=O)C(=O)[C@@H]3[C@@H](O)[C@]1(OC3(C)C)[C@H](C)[C@@H](O)[C@H](OC(C)=O)[C@@H]2OC(C)=O	-0.5%	1.5%
CC(=O)O[C@H]1C[C@@H](C)[C@]23OC(C)(C)[C@H](C[C@H](OC(=O)c4ccccc4)[C@@]2(C)[C@@H]1OC(C)=O)[C@H]3OC(=O)c1ccccc1	0%	57.9%
CC(=O)O[C@@H]1C[C@@H](C)[C@]23OC(C)(C)[C@H]([C@@H](O)[C@H](OC(=O)c4ccccc4)[C@@]2(C)[C@H]1OC(C)=O)[C@H]3OC(=O)/C=C/c1ccccc1	3.3%	78.7%
CC(=O)O[C@H]1[C@@H]2[C@@H](OC(=O)c3cccnc3)[C@]3(OC2(C)C)[C@H](C)C[C@H](OC(C)=O)[C@@H](OC(C)=O)[C@@]3(C)[C@H]1OC(=O)c1ccccc1	-3%	-6.7%
CC(=O)OC[C@]12[C@H](OC(C)=O)C(=O)[C@@H]3[C@@H](O)[C@]1(OC3(C)C)[C@H](C)[C@@H](OC(C)=O)[C@H](OC(C)=O)[C@@H]2OC(C)=O	1.6%	2.6%
CC(=O)O[C@@H]1[C@H]2[C@H](O)[C@H](OC(=O)c3ccccc3)[C@]3(C)[C@@H](OC(C)=O)[C@H](O)C[C@@H](C)[C@@]13OC2(C)C	-1.9%	-2.1%
CC(=O)O[C@@H]1C[C@@H](C)[C@]23OC(C)(C)[C@H](C[C@H](OC(=O)c4ccccc4)[C@]2(C)[C@H]1OC(C)=O)[C@H]3OC(=O)/C=C/c1ccccc1	-5.3%	81.8%
CCCCCC(=O)O[C@@H]1[C@@H]2[C@@H](OC(C)=O)[C@]3(OC2(C)C)[C@H](C)C[C@@H](OC(C)=O)[C@H](OC(C)=O)[C@@]3(C)[C@H]1OC(=O)c1ccccc1	-3.1%	-1.9%
CC(=O)O[C@H]1[C@@H]2[C@@H](OC(=O)/C=C/c3ccccc3)[C@]3(OC2(C)C)[C@H](C)C[C@@H](OC(C)=O)[C@H](OC(C)=O)[C@@]3(C)[C@H]1OC(=O)c1ccccc1	-0.6%	-3%
CC(=O)O[C@H]1CC[C@@H](C)[C@]23OC(C)(C)[C@H](C[C@H](OC(=O)c4ccccc4)[C@]12C)[C@H]3OC(=O)c1ccccc1	-1.8%	77.9%
CC(=O)O[C@@H]1[C@@H]2[C@@H](OC(C)=O)[C@]3(OC2(C)C)[C@H](C)CC[C@H](OC(C)=O)[C@@]3(C)[C@H]1OC(=O)c1ccccc1	2.4%	3.2%
